Test results as given in US9073918B2, “Pyrazolo[4,3-b]pyridine-7-amine inhibitors of ALK5” (Takeda Pharmaceutical Company Limited, priority 2010, dated 2015).

Tests used:
[1] = molecular target: T1, TGF-β R1 ALK5 (Homo sapiens, UniProt P36897); test: In vitro inhibition of ALK5 (LanthaScreen activity assay, TR-FRET); format: biochemical
T1 construct: purchased Invitrogen PV5837
T1 sequence (P36897 34-503): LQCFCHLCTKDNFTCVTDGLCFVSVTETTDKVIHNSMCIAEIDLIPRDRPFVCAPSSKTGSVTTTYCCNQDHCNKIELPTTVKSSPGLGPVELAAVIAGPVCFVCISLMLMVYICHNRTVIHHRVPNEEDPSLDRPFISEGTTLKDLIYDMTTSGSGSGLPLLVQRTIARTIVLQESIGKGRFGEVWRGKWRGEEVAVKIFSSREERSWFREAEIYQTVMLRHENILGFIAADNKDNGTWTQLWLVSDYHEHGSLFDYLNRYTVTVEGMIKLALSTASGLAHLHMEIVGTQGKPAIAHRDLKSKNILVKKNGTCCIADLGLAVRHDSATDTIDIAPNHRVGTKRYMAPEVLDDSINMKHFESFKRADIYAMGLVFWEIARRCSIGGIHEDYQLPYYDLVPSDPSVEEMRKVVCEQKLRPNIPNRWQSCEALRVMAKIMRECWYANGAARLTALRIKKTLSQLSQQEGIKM

[2] = molecular target: T2, cellular TGF-β R1 ALK5 (Homo sapiens, UniProt P36897); test: Cellular inhibition of ALK5 (CellSensor SBE-bla HEK 293T beta-lactamase reporter); format: cell-based; conditions: cellular inhibition of ALK5, SBE-bla HEK 293T cells, TGFb-1 stimulated 5 hours; average where measured in multiple experiments
T2 construct: host or cells: CellSensor SBE-bla HEK 293T
T2 sequence (P36897 34-503): T1 sequence (P36897 34-503)
Summary of the method: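 SBE-bla HEK 293T beta-lactamase reporter cells pre-incubated 1 h at 37 °C with 2.5-fold serially diluted compounds (0.5% DMSO), then stimulated 5 h with TGFb-1 (100 ng/mL stock).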

| SMILES | IC50 [1] | IC50 [2] |
| --- | --- | --- |
| CCn1cc2nccc(Nc3cc(-c4nc(C)ccc4F)ncc3C)c2n1 [Example 126, 2-ethyl-N-(3′-fluoro-5,6′-dimethyl-2,2′-bipyridin-4-yl)-2H-pyrazolo[4,3-b]pyridin-7-amine] | 10 nM | 15.8 nM |
| CCn1ncc2nccc(Nc3ccnc(-c4nc(C)ccc4F)c3)c21 [Example 127, 1-ethyl-N-(3′-fluoro-6′-methyl-2,2′-bipyridin-4-yl)-1H-pyrazolo[4,3-b]pyridin-7-amine] | 7.94 nM | 31.6 nM |
| Cc1cnc(-c2cc(Cl)ccc2F)cc1Nc1ccnc2cn(C)nc12 [Example 128, N-(2-(5-chloro-2-fluorophenyl)-5-methylpyridin-4-yl)-2-methyl-2H-pyrazolo[4,3-b]pyridin-7-amine] | 6.31 nM | 25.1 nM |
| Cc1ccc(F)c(-c2cc(Nc3ccnc4cn(CCF)nc34)c(C)cn2)n1 [Example 129, N-(3′-fluoro-5,6′-dimethyl-2,2′-bipyridin-4-yl)-2-(2-fluoroethyl)-2H-pyrazolo[4,3-b]pyridin-7-amine] | 6.31 nM | 15.8 nM |
| Cc1ccc(F)c(-c2cc(Nc3ccnc4cnn(CCF)c34)c(C)cn2)n1 [Example 130, N-(3′-fluoro-5,6′-dimethyl-2,2′-bipyridin-4-yl)-1-(2-fluoroethyl)-1H-pyrazolo[4,3-b]pyridin-7-amine] | 3.98 nM | 20 nM |
| Cc1ccc(F)c(-c2cc(Nc3c(F)cnc4cn(C)nc34)c(C)cn2)n1 [Example 131, 6-fluoro-N-(3′-fluoro-5,6′-dimethyl-2,2′-bipyridin-4-yl)-2-methyl-2H-pyrazolo[4,3-b]pyridin-7-amine] | 3.16 nM | 10 nM |
| Cc1ccc(F)c(-c2cc(Nc3c(F)cnc4cnn(C)c34)c(C)cn2)n1 [Example 132, 6-fluoro-N-(3′-fluoro-5,6′-dimethyl-2,2′-bipyridin-4-yl)-1-methyl-1H-pyrazolo[4,3-b]pyridin-7-amine] | 63.1 nM | 126 nM |
| Cc1ccc(F)c(-c2cc(Nc3ccnc4cnn(C5CC5)c34)ccn2)n1 [Example 133, 1-cyclopropyl-N-(3′-fluoro-6′-methyl-2,2′-bipyridin-4-yl)-1H-pyrazolo[4,3-b]pyridin-7-amine] | 5.01 nM | 31.6 nM |
| CCn1ncc2nccc(Nc3cc(-c4nc(C)ccc4F)ncc3C)c21 [Example 134, 1-ethyl-N-(3′-fluoro-5,6′-dimethyl-2,2′-bipyridin-4-yl)-1H-pyrazolo[4,3-b]pyridin-7-amine] | 2 nM | 50.1 nM |
| Cc1ccc(F)c(-c2cc(Nc3ccnc4cnn(CCC(C)(C)O)c34)ccn2)n1 [Example 135, 4-(7-(3′-fluoro-6′-methyl-2,2′-bipyridin-4-ylamino)-1H-pyrazolo[4,3-b]pyridin-1-yl)-2-methylbutan-2-ol] | 15.8 nM | 50.1 nM |
| Cc1ccc(F)c(-c2cc(Nc3ccnc4cn([C@@H]5CCOC5)nc34)c(C)cn2)n1 [Example 136, (R)—N-(3′-fluoro-5,6′-dimethyl-2,2′-bipyridin-4-yl)-2-(tetrahydrofuran-3-yl)-2H-pyrazolo[4,3-b]pyridin-7-amine] | 6.31 nM | 79.4 nM |
| Cc1ccc(F)c(-c2cc(Nc3ccnc4cnn([C@@H]5CCOC5)c34)c(C)cn2)n1 [Example 137, (R)—N-(3′-fluoro-5,6′-dimethyl-2,2′-bipyridin-4-yl)-1-(tetrahydrofuran-3-yl)-1H-pyrazolo[4,3-b]pyridin-7-amine] | 20 nM | 79.4 nM |
| CCn1cc2ncc(F)c(Nc3cc(-c4nc(C)ccc4F)ncc3C)c2n1 [Example 138, 2-ethyl-6-fluoro-N-(3′-fluoro-5,6′-dimethyl-2,2′-bipyridin-4-yl)-2H-pyrazolo[4,3-b]pyridin-7-amine] | 7.94 nM | 15.8 nM |
| CCn1ncc2ncc(F)c(Nc3cc(-c4nc(C)ccc4F)ncc3C)c21 [Example 139, 1-ethyl-6-fluoro-N-(3′-fluoro-5,6′-dimethyl-2,2′-bipyridin-4-yl)-1H-pyrazolo[4,3-b]pyridin-7-amine] | 25.1 nM | 126 nM |
| Cc1ccc(F)c(-c2cc(Nc3ccnc4cn([C@H]5CCOC5)nc34)c(C)cn2)n1 [Example 140, (S)—N-(3′-fluoro-5,6′-dimethyl-2,2′-bipyridin-4-yl)-2-(tetrahydrofuran-3-yl)-2H-pyrazolo[4,3-b]pyridin-7-amine] | 7.94 nM | 50.1 nM |
| Cc1ccc(F)c(-c2cc(Nc3ccnc4cnn([C@H]5CCOC5)c34)c(C)cn2)n1 [Example 141, (S)—N-(3′-fluoro-5,6′-dimethyl-2,2′-bipyridin-4-yl)-1-(tetrahydrofuran-3-yl)-1H-pyrazolo[4,3-b]pyridin-7-amine] | 25.1 nM | 158 nM |
| Cc1cnc(-c2cc(F)ccc2F)cc1Nc1ccnc2cn(CCC(C)(C)O)nc12 [Example 142, 4-(7-(2-(2,5-difluorophenyl)-5-methylpyridin-4-ylamino)-2H-pyrazolo[4,3-b]pyridin-2-yl)-2-methylbutan-2-ol] | 25.1 nM | 158 nM |
| Cc1cnc(-c2cc(F)ccc2F)cc1Nc1ccnc2cn(CC(C)O)nc12 (stereo not drawn) [Example 143, 1-(7-(2-(2,5-difluorophenyl)-5-methylpyridin-4-ylamino)-2H-pyrazolo[4,3-b]pyridin-2-yl)propan-2-ol] | 20 nM | 126 nM |
| Cc1cnc(-c2cc(F)ccc2F)cc1Nc1ccnc2cnn(CC(C)O)c12 (stereo not drawn) [Example 144, 1-(7-(2-(2,5-difluorophenyl)-5-methylpyridin-4-ylamino)-1H-pyrazolo[4,3-b]pyridin-1-yl)propan-2-ol] | 2.51 nM | 20 nM |
| CNC(=O)Cn1ncc2nccc(Nc3cc(-c4nc(C)ccc4F)ncc3C)c21 [Example 145, 2-(7-(3′-fluoro-5,6′-dimethyl-2,2′-bipyridin-4-ylamino)-1H-pyrazolo[4,3-b]pyridin-1-yl)-N-methylacetamide] | 15.8 nM | 126 nM |
| CNC(=O)Cn1cc2nccc(Nc3cc(-c4nc(C)ccc4F)ncc3C)c2n1 [Example 146, 2-(7-(3′-fluoro-5,6′-dimethyl-2,2′-bipyridin-4-ylamino)-2H-pyrazolo[4,3-b]pyridin-2-yl)-N-methylacetamide] | 31.6 nM | 501 nM |
| CNC(=O)Cn1cc2ncc(F)c(Nc3cc(-c4nc(C)ccc4F)ncc3C)c2n1 [Example 147, 2-(6-fluoro-7-(3′-fluoro-5,6′-dimethyl-2,2′-bipyridin-4-ylamino)-2H-pyrazolo[4,3-b]pyridin-2-yl)-N-methylacetamide] | 31.6 nM | 200 nM |
| CNC(=O)Cn1ncc2ncc(F)c(Nc3cc(-c4nc(C)ccc4F)ncc3C)c21 [Example 148, 2-(6-fluoro-7-(3′-fluoro-5,6′-dimethyl-2,2′-bipyridin-4-ylamino)-1H-pyrazolo[4,3-b]pyridin-1-yl)-N-methylacetamide] | 200 nM | 1000 nM |
| Cc1ccc(F)c(-c2cc(Nc3ccnc4cn(C[C@H](C)O)nc34)c(C)cn2)n1 [Example 149, (S)-1-(7-(3′-fluoro-5,6′-dimethyl-2,2′-bipyridin-4-ylamino)-2H-pyrazolo[4,3-b]pyridin-2-yl)propan-2-ol] | 6.31 nM | 79.4 nM |
| Cc1ccc(F)c(-c2cc(Nc3ccnc4cn(C[C@@H](C)O)nc34)c(C)cn2)n1 [Example 150, (R)-1-(7-(3′-fluoro-5,6′-dimethyl-2,2′-bipyridin-4-ylamino)-2H-pyrazolo[4,3-b]pyridin-2-yl)propan-2-ol] | 7.94 nM | 158 nM |
| Cc1ccc(F)c(-c2cc(Nc3ccnc4cnn(C[C@@H](C)O)c34)c(C)cn2)n1 [Example 151, (R)-1-(7-(3′-fluoro-5,6′-dimethyl-2,2′-bipyridin-4-ylamino)-1H-pyrazolo[4,3-b]pyridin-1-yl)propan-2-ol] | 6.31 nM | 63.1 nM |
| Cc1ccc(F)c(-c2cc(Nc3ccnc4cnn(C[C@H](C)O)c34)c(C)cn2)n1 [Example 152, (S)-1-(7-(3′-fluoro-5,6′-dimethyl-2,2′-bipyridin-4-ylamino)-1H-pyrazolo[4,3-b]pyridin-1-yl)propan-2-ol] | 7.94 nM | 100 nM |
| CCNC(=O)Cn1ncc2nccc(Nc3cc(-c4nc(C)ccc4F)ncc3C)c21 [Example 153, N-ethyl-2-(7-(3′-fluoro-5,6′-dimethyl-2,2′-bipyridin-4-ylamino)-1H-pyrazolo[4,3-b]pyridin-1-yl)acetamide] | 7.94 nM | 79.4 nM |
| CCNC(=O)Cn1cc2nccc(Nc3cc(-c4nc(C)ccc4F)ncc3C)c2n1 [Example 154, N-ethyl-2-(7-(3′-fluoro-5,6′-dimethyl-2,2′-bipyridin-4-ylamino)-2H-pyrazolo[4,3-b]pyridin-2-yl)acetamide] | 31.6 nM | 1580 nM |
| CCNC(=O)Cn1ncc2nccc(Nc3cc(-c4cc(F)ccc4F)ncc3C)c21 [Example 155, 2-(7-(2-(2,5-difluorophenyl)-5-methylpyridin-4-ylamino)-1H-pyrazolo[4,3-b]pyridin-1-yl)-N-ethylacetamide] | 25.1 nM | 794 nM |
